From US11752111B2, “Use of cannabidivarin in the treatment of autism spectrum disorder, associated disorders and schizophrenia” (GW Research Limited, priority 2016, dated 2023)

Experiments:
PCP-treated rats [1] = experiment: Social interaction test, sub-chronic PCP model of schizophrenia; assay type: in vivo, rat
Method: (§1) Female hooded-Lister rats were used for this experiment. Rats were housed in groups of 5 under standard laboratory conditions under a 12 hr light: dark cycle, lights on at 0700 hr. Testing was carried out in the light phase.
(§2) Rats were randomly assigned to two treatment groups and treated with vehicle, n=20 (distilled water, i.p.) or Phencyclidine hydrochloride (PCP), n=100 (2 mg/kg, i.p. twice daily for 7-days). PCP was dissolved in distilled water. This was followed by a 7-day wash out period before the rats were tested following acute treatment with CBDV, risperidone or vehicle.
(§3) Risperidone (0.1 mg/kg) was dissolved in a minimum volume of acetic acid, made up to volume with distilled water and pH adjusted to 6 with 0.1M NaOH and administered via the i.p. route in a volume of 1 ml/kg, 60 min prior to testing.
(§4) CBDV at 2, 10 or 20 mg/kg was dissolved in 2:1:17 (Ethanol:Cremofor:Saline 0.9%) and administered via the i.p. route in a volume of 5 ml/kg, 60 min prior to testing.
The social interaction test is performed in an open-field comprising a square box made of Plexiglas (52×52×31 cm) placed 27 cm above the floor on a moveable trolley. The floor of the box is white with black gridlines forming 9 identical squares on it. All other walls are black. A video camera connected to a video recorder and monitor is positioned above the box. The object used for the test consists of a heavy structure made of metal that cannot be displaced by the animals.
The rats were habituated to the test environment and arena prior to the test day. Habituation consists of placing all rats from one cage together in the empty test arena for one hour for three days including the day before the test day.
Pairs of rats, weight matched (15-20 g) and unfamiliar to each other, receiving either no treatment (n=70 “conspecific” rats) or different treatments (PCP and Vehicle; n=10 “tested” rats or PCP+Drug; n=50 “tested” rats) were placed in the test arena together for 10 min and behaviour assessed as described below.
An inanimate object such as an unopened drinks can is also placed in the centre of the arena to measure any differences in interaction of the test animal with an unfamiliar animal as opposed to an unfamiliar object. After each 10 minute trial, the object and arena are cleaned with 10% alcohol in an attempt to remove traces of any olfactory cues. All testing is carried out under standard room illumination levels (70 cd/m2).
Behaviour in both trials was recorded on video for subsequent blind scoring. A behavioural scoring software program (Hindsight, Scientific programming services) is used to score the following parameters: • Investigative sniffing behaviour: sniffing the conspecific's snout or parts of the body including the anogenital region; • Following: rat moves after the conspecific i.e. a vehicle treated rat of the same species, around the arena; • Avoidances: actively turning away when approached by the conspecific animal; • Investigation of object: exploration of object placed in centre of the arena; and • Locomotor activity is recorded by counting the total number of sectors (i.e. lines) crossed by the test rat. Results

PCP-treated rats [2] = experiment: Novel object recognition test, sub-chronic PCP model of schizophrenia; assay type: in vivo, rat; settings: risperidone 0.1 mg/kg i.p. 60 min prior to testing
Method: as §1, §2, §3, §4
Rats were allowed to habituate to the empty test box and the behavioural test room environment for 1h on day 1. Prior to behavioural testing on day 2 rats are given a further 3 min habituation.
Following the 3 min habituation period, the rats are given two 3 min trials (T1 and T2) which are separated by a 1 min inter-trial interval in the home cage during which the objects are changed. Behaviour in all trials was recorded on video for subsequent blind scoring.
In this trial, the animals are allowed to explore two identical objects (A1 and A2) for 3 min.
In this trial, the animals explore a familiar object (A) from T1 and a novel object (B) for 3 min. The familiar object presented during T2 is a duplicate of the object presented in T1 in order to avoid any olfactory trails.
The object exploration is defined by animals licking, sniffing or touching the object with the forepaws whilst sniffing, but not leaning against, turning around, standing or sitting on the object. The exploration time (s) of each object (A, B, familiar and novel) in each trial are recorded using two stopwatches and the following factors are calculated:
Discrimination index (DI), which is calculated as shown below: […]

PCP-treated rats [3] = settings: background statement; cited from earlier work

**Q.** With `Cc1nc2n(c(=O)c1CCN1CCC(c3noc4cc(F)ccc34)CC1)CCCC2` [risperidone, reference compound] as the compound, how does the “PCP effects on social interaction (sniffing, following, avoiding) (FIG. 18)” value (PCP-treated rats [1]; risperidone 0.1 mg/kg i.p.) read?
**A.** Its value is “reverse these effects in a statistically significant manner”.

**Q.** And the “time spent following the other rat (FIG. 18B)” value (PCP-treated rats [1]; risperidone 0.1 mg/kg, time increased over PCP alone)?
**A.** The value was “not seen to be significant”.

**Q.** What about the “time spent investigating two identical objects in Trial 1 (FIG. 16A)” value (PCP-treated rats [2]) of the same compound?
**A.** Its value is “no real preference”.

**Q.** And the “PCP-induced deficit in the novel object recognition (NOR) test” value (PCP-treated rats [3])?
**A.** The value was “can attenuate the deficit”.
